Legend:
[1] = tested on: isolates of E. coli, K. pneumoniae and P. aeruginosa; experiment: Induction of susceptibility in MDR isolates (summary over all three species); type: cell-based; conditions: peptidomimetic 1 at ≤1 μM; 30 of 36 isolates
From the text: (§1) Bacterial strains used in this study comprise MDR clinical isolates of E. coli ST131 (Cerquetti et al., [2010]) and K. pneumoniae ST258 (Jana et al., [2017]), and American type culture collection (ATCC) strains: ATCC 25922 (E. coli), ATCC 13883 (K. pneumoniae), and ATCC 27853 (P. aeruginosa). Additional clinical isolates of E. coli, K. pneumoniae, and P. aeruginosa resistant to β-lactams (including carbapenems and cephalosporins) were provided by Laurent Poirel, Université de Fribourg, Switzerland. The following growth media was routinely used for bacterial culturing: Luria-Burtani (LB), cation-adjusted Mueller-Hinton agar (MHA) and broth (MHB II). All assays were performed in cation-adjusted MHA or MHB II. […]
(§2) Minimal inhibitory concentrations (MICs) of peptidomimetics, antibiotics and their combinations were determined by broth microdilution according to the Clinical Laboratory Standards Institute performance standards (Clinical and Laboratory Standards Institute, [2013]). […] Potentiation of additional antibiotics by peptidomimetics was determined by using commercial 96-well plates containing varied concentrations of standard antibiotics (COMPAN1F; Trek Diagnostic Systems Inc.). The peptidomimetics were added immediately prior to inoculation with pathogen, and then MICs were determined as above. […] Minimal bactericidal concentrations (MBCs) were determined by using growth-curve assay plates. […]

[2] = MTS/PMS cell viability assay; type: cell-based, mouse; conditions: mouse, NIH 3T3 fibroblasts, 1 h exposure, read-out: Cytotoxicity NIH 3T3 EC50 ± SD
How it was run: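 NIH 3T3 and HepG2 cells at 80–90% confluence exposed 1 h to compound in serum-free medium, then MTS/PMS added for 1 h at 37 °C; absorbance read at 492 nm. Viability normalized to medium (0% death) and 0.2% SDS (100% death); EC50 from Hill fit constrained 0–100%, technical triplicates.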

E. coli ST131 [3] = experiment: MIC by broth microdilution; type: cell-based, Escherichia coli; conditions: peptidomimetic alone
How it was run: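 MICs were determined by CLSI broth microdilution. Combinations used fixed peptidomimetic:antibiotic ratios of 2:1 with rifampicin and 1:4 with azithromycin, and potentiation of other antibiotics was tested on COMPAN1F panels. MBCs came from OD600 growth curves over 24 h at 37°C, followed by plating of wells without growth onto MHA.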

[4] = tested on: K. pneumoniae clinical isolates and reference strains; experiment: MIC of fixed-ratio peptidomimetic 1-antibiotic combinations in clinical isolates and reference strains; type: cell-based, Klebsiella pneumoniae; conditions: with rifampicin or azithromycin
From the text: as §1, §2

P. aeruginosa ATTC 27853 = conditions: ATTC 27853, 24 h
Protocol: (§3) Minimal inhibitory concentrations (MICs) of peptidomimetics, antibiotics and their combinations were determined by broth microdilution according to the Clinical Laboratory Standards Institute performance standards (Clinical and Laboratory Standards Institute, [2013]). […] Since rifampicin and azithromycin mainly are used to treat infections with Gram-positive pathogens only CLSI clinical breakpoints were available for such bacteria. […] Potentiation of additional antibiotics by peptidomimetics was determined by using commercial 96-well plates containing varied concentrations of standard antibiotics (COMPAN1F; Trek Diagnostic Systems Inc.). The peptidomimetics were added immediately prior to inoculation with pathogen, and then MICs were determined as above. The MICs of peptidomimetic/antibiotic combinations were determined according to the method above, and the concentration ratios were selected based upon checkerboard results with 2:1 and 1:4 ratio of peptidomimetic with rifampicin or azithromycin, respectively. Minimal bactericidal concentrations (MBCs) were determined by using growth-curve assay plates. MIC plates were prepared as above, and then the plates were incubated at 37°C with continuous shaking. Growth was recorded at 10 min intervals as optical density (OD) at 600 nm during 24 h. At 24 h, for wells without growth, a sample was diluted 10-fold in sterile saline (0.9% sodium chloride) and plated onto MHA, following CLSI guidelines (Clinical and Laboratory Standards Institute, [1999]).

E. coli ST131 [5] = conditions: ST131, 24 h
Protocol: as §3

K. pneumoniae ST258 [6] = conditions: ST258, 24 h
Protocol: as §3

P. aeruginosa ATCC 27853 = experiment: MIC by broth microdilution; type: cell-based, Pseudomonas aeruginosa; conditions: peptidomimetic alone
How it was run: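 Potentiation is scored as MIC of standard antibiotics in prepared dilution plates with peptidomimetic present, added just prior to pathogen inoculation. MICs are read by CLSI broth microdilution.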

[7] = tested on: P. aeruginosa clinical isolates and reference strains; experiment: MIC of fixed-ratio peptidomimetic 1-antibiotic combinations in clinical isolates and reference strains; type: cell-based, Pseudomonas aeruginosa; conditions: with rifampicin or azithromycin
From the text: as §1, with “II. Antibiotics were purchased from Sigma-Aldrich and the peptidomimetic collection (Table S1) was curated and provided by Henrik Franzyk.” for “II.”
(§4) Minimal inhibitory concentrations (MICs) of peptidomimetics, antibiotics and their combinations were determined by broth microdilution according to the Clinical Laboratory Standards Institute performance standards (Clinical and Laboratory Standards Institute, [2013]). […] Potentiation of additional antibiotics by peptidomimetics was determined by using commercial 96-well plates containing varied concentrations of standard antibiotics (COMPAN1F; Trek Diagnostic Systems Inc.). The peptidomimetics were added immediately prior to inoculation with pathogen, and then MICs were determined as above. The MICs of peptidomimetic/antibiotic combinations were determined according to the method above, and the concentration ratios were selected based upon checkerboard results with 2:1 and 1:4 ratio of peptidomimetic with rifampicin or azithromycin, respectively. Minimal bactericidal concentrations (MBCs) were determined by using growth-curve assay plates. […] Growth was recorded at 10 min intervals as optical density (OD) at 600 nm during 24 h. […]

K. pneumoniae ST258 [8] = experiment: MIC by broth microdilution; type: cell-based, Klebsiella pneumoniae
How it was run: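 Checkerboard data set the combination ratios (2:1 with rifampicin, 1:4 with azithromycin, peptidomimetic first). MICs then followed CLSI broth microdilution, and potentiation used commercial antibiotic-gradient plates with peptidomimetic added right before inoculation.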

[9] = tested on: E. coli clinical isolates and reference strains; experiment: MIC of fixed-ratio peptidomimetic 1-antibiotic combinations in clinical isolates and reference strains; type: cell-based, Escherichia coli; conditions: with rifampicin or azithromycin
From the text: as §1, with “II. Antibiotics were purchased from Sigma-Aldrich and the peptidomimetic collection (Table S1) was curated and provided by Henrik Franzyk.” for “II.”
as §4

MIC E. coli ST131 (E. coli ST131 [3]): 2 µM
MIC (peptidomimetic alone) (P. aeruginosa ATTC 27853): 1 µM
MIC (peptidomimetic alone) (E. coli ST131 [5]): 1 µM
MIC (peptidomimetic alone) (K. pneumoniae ST258 [6]): 8 µM
MIC P. aeruginosa ATCC 27853 (P. aeruginosa ATCC 27853): 1 µM
MIC K. pneumoniae ST258 (K. pneumoniae ST258 [8]; peptidomimetic alone): 16 µM
SMILES: NCCCC[C@H](NC(=O)CCN(Cc1ccccc1)C(=O)[C@H](CCCCN)NC(=O)CCN(Cc1ccccc1)C(=O)[C@H](CCCCN)NC(=O)CCN(Cc1ccccc1)C(=O)[C@H](CCCCN)NC(=O)CCN(Cc1ccccc1)C(=O)[C@H](CCCCN)NC(=O)CCN(Cc1ccccc1)C(=O)[C@H](CCCCN)NC(=O)CCN(Cc1ccccc1)C(=O)[C@H](CCCCN)NC(=O)CCN(Cc1ccccc1)C(=O)[C@@H](N)CCCCN)C(=O)N(CCC(N)=O)Cc1ccccc1 [Peptidomimetic 1, H-(Lys-βNPhe)8-NH2]
Isolates in which susceptibility to rifampicin and azithromycin was induced [1]: 83%
EC50 at 1 h [2]: 211 ± 26.8 µM
Peptidomimetic concentration required to induce susceptibility, three K. pneumoniae isolates [4]: 2 to 8 µM
MBC (peptidomimetic alone) (P. aeruginosa ATTC 27853): 2 µM
MBC (peptidomimetic alone) (E. coli ST131 [5]): 1 µM
MBC (peptidomimetic alone) (K. pneumoniae ST258 [6]): 16 to 32 µM
Peptidomimetic concentration typically required, P. aeruginosa isolates [7]: 1 to 8 µM
Selectivity Index (SI) K. pneumoniae ST258 (K. pneumoniae ST258 [8]; average of EC50 (HepG2, NIH 3T3) divided by MIC): (10)
Peptidomimetic concentration in combination, most E. coli isolates [9]: 0.5 to 1 µM

Source: article PMC6615261, “Repurposing Azithromycin and Rifampicin Against Gram-Negative Pathogens by Combination With Peptidomimetics” (Frontiers in Cellular and Infection Microbiology, 2019)
